# Data as given in US8604061B2, “2-aminooxazolines as TAAR1 ligands” (Hoffmann-La Roche Inc., priority 2007, dated 2013).
# Molecular target: TAAR1 (Mus musculus, UniProt Q923Y8)
# Assay: TAAR1 radioligand binding, membranes of stably transfected HEK293 cells (mouse)
# Settings: not given
# Method in brief: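 Competition binding on membranes from HEK293 cells stably expressing the TAAR1 species ortholog, in HEPES-NaOH pH 7.0 with 10 mM MgCl2 and 2 mM CaCl2, 30 min at 4° C with [3H]-rac-2-(1,2,3,4-tetrahydro-1-naphthyl)-2-imidazoline. Competitors 10 pM–30 μM, duplicates; non-specific binding with 10 μM unlabelled ligand; filtration and scintillation counting.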
row,SMILES,Ki
1,"NC1=NC(c2ccc(OC(F)(F)F)cc2)CO1 (racemic) [Example 12, (RS)-4-(4-Trifluoromethoxy-phenyl)-4,5-dihydro-oxazol-2-ylamine]",0.008 µM
2,"NC1=NC(c2ccc(OCc3ccccc3)cc2)CO1 (racemic) [Example 22, (RS)-4-(4-Benzyloxy-phenyl)-4,5-dihydro-oxazol-2-ylamine]",0.0011 µM
3,"NC1=NC(c2cc(Cl)ccc2F)CO1 (racemic) [Example 19, (RS)-4-(5-Chloro-2-fluoro-phenyl)-4,5-dihydro-oxazol-2-ylamine]",0.0018 µM
4,"NC1=N[C@@H](c2ccc(-c3ccccc3)cc2)CO1 [Example 21 (S), (S)-4-Biphenyl-4-yl-4,5-dihydro-oxazol-2-ylamine]",0.0008 µM
5,"NC1=NC(c2cc(Cl)c(Cl)cc2C(F)(F)F)CO1 (racemic) [Example 234, (RS)-4-(4,5-Dichloro-2-trifluoromethyl-phenyl)-4,5-dihydro-oxazol-2-ylamine]",0.0093 µM
6,"NC1=NC(c2ccc(Cl)cc2)CO1 (racemic) [Example 5, (RS)-4-(4-Chloro-phenyl)-4,5-dihydro-oxazol-2-ylamine]",0.0021 µM

# Same assay, conditions: mouse/rat; cell not marked 'rat'; radioligand [3H]-rac-2-(1,2,3,4-tetrahydro-1-naphthyl)-2-imidazoline, 4° C.; read-out: Ki (μM) mouse/rat
row,SMILES,Ki
1,"Cc1cc(CC[C@H]2COC(N)=N2)ccn1 [Example 220, (S)-4-[2-(2-Methyl-pyridin-4-yl)-ethyl]-4,5-dihydro-oxazol-2-ylamine]",0.0084 µM
2,"NC1=N[C@@H](c2ccc(F)c(Br)c2F)CO1 [Example 29 (S), (S)-4-(3-Bromo-2,4-difluoro-phenyl)-4,5-dihydro-oxazol-2-ylamine]",0.0054 µM
3,"NC1=N[C@@H](CCc2ccc(F)c(C(F)(F)F)c2)CO1 [Example 133, (S)-4-[2-(4-Fluoro-3-trifluoromethyl-phenyl)-ethyl]-4,5-dihydro-oxazol-2-ylamine]",0.0022 µM
4,"NC1=N[C@@H](c2ccc(Br)cc2)CO1 [Example 105, (S)-4-(4-Bromo-phenyl)-4,5-dihydro-oxazol-2-ylamine]",0.0007 µM
5,"NC1=N[C@@H](c2cccc(Cl)c2Cl)CO1 [Example 168, (S)-4-(2,3-Dichloro-phenyl)-4,5-dihydro-oxazol-2-ylamine]",0.0006 µM
6,"NC1=N[C@H](CCc2ccccc2)CO1 [80 (R), (R)-4-phenethyl-4,5-dihydro-oxazol-2-ylamine]",0.0083 µM
7,"NC1=N[C@@H](COc2ccccc2F)CO1 [Example 354, (S)-4-(2-Fluoro-phenoxymethyl)-4,5-dihydro-oxazol-2-ylamine]",0.0003 µM
8,"NC1=N[C@@H](c2cc(Cl)c(Cl)cc2C(F)(F)F)CO1 [Example 242, (+)-(S)-4-(4,5-Dichloro-2-trifluoromethyl-phenyl)-4,5-dihydro-oxazol-2-ylamine]",0.0072 µM
9,"Cc1ccccc1CC[C@H]1COC(N)=N1 [Example 114, (S)-4-(2-o-Tolyl-ethyl)-4,5-dihydro-oxazol-2-ylamine]",0.0021 µM
10,"Cc1cc(C2(C)COC(N)=N2)c(F)cc1Cl (racemic) [Example 274, (RS)-4-(4-Chloro-2-fluoro-5-methyl-phenyl)-4-methyl-4,5-dihydro-oxazol-2-ylamine]",0.0011 µM
11,"NC1=N[C@@H](c2cc(F)ccc2F)CO1 [Example 101, (S)-4-(2,5-Difluoro-phenyl)-4,5-dihydro-oxazol-2-ylamine]",0.0034 µM
12,"NC1=N[C@@H](CCc2c(F)cccc2Cl)CO1 [Example 303, (S)-4-[2-(2-Chloro-6-fluoro-phenyl)-ethyl]-4,5-dihydro-oxazol-2-ylamine]",0.0011 µM
13,"C[C@]1(c2ccc(C(F)(F)F)cc2)COC(N)=N1 [Example 147, (S)-4-Methyl-4-(4-trifluoromethyl-phenyl)-4,5-dihydro-oxazol-2-ylamine]",0.0041 µM
14,"NC1=N[C@@H](c2ccc(F)c(F)c2F)CO1 [Example 301, (+)-(S)-4-(2,3,4-Trifluoro-phenyl)-4,5-dihydro-oxazol-2-ylamine]",0.0023 µM
15,"NC1=N[C@@H](CCc2ccc(Cl)c(C(F)(F)F)c2)CO1 [Example 144, (S)-4-[2-(4-Chloro-3-trifluoromethyl-phenyl)-ethyl]-4,5-dihydro-oxazol-2-ylamine]",0.0012 µM
16,"NC1=N[C@@H](CCc2cccc(F)c2)CO1 [Example 112, (S)-4-[2-(3-Fluoro-phenyl)-ethyl]-4,5-dihydro-oxazol-2-ylamine]",0.0012 µM
17,"NC1=N[C@@H](CCc2ccncc2F)CO1 [Example 158, (S)-4-[2-(3-Fluoro-pyridin-4-yl)-ethyl]-4,5-dihydro-oxazol-2-ylamine]",0.0068 µM

row,SMILES,Ki
1,"Cc1ccc([C@H]2COC(N)=N2)cc1Cl [Example 374, (+)-(S)-4-(3-Chloro-4-methyl-phenyl)-4,5-dihydro-oxazol-2-ylamine]",0.0006 µM
2,"NC1=N[C@@H](Cc2ccc3ccccc3c2)CO1 [Example 49, (S)-4-Naphthalen-2-ylmethyl-4,5-dihydro-oxazol-2-ylamine]",0.0054 µM
3,"NC1=N[C@@H](CCc2ccccc2)CO1 [Example 80 (S), (S)-4-Phenethyl-4,5-dihydro-oxazol-2-ylamine]",0.0008 µM
4,"CC(C[C@H]1COC(N)=N1)c1cc(F)cc(F)c1 (stereo partly drawn) [Example 202, (S)-4-[2-(3,5-Difluoro-phenyl)-propyl]-4,5-dihydro-oxazol-2-ylamine]",0.0017 µM
5,"CC(C[C@H]1COC(N)=N1)c1ccc(Cl)c(Cl)c1 (stereo partly drawn) [Example 221, (S)-4-[2-(3,4-Dichloro-phenyl)-propyl]-4,5-dihydro-oxazol-2-ylamine]",0.0022 µM
6,"NC1=NC(CCC2CCCCC2)CO1 (stereo in doubt) [Example 332, (S)-4-(2-Cyclohexyl-ethyl)-4,5-dihydro-oxazol-2-ylamine]",0.0061 µM
7,"NC1=N[C@@H](c2ccc(Cl)cc2C(F)(F)F)CO1 [Example 238, (+)-(S)-4-(4-Chloro-2-trifluoromethyl-phenyl)-4,5-dihydro-oxazol-2-ylamine]",0.003 µM
8,"NC1=N[C@@H](COc2ccc(F)cc2F)CO1 [Example 353, (S)-4-(2,4-Difluoro-phenoxymethyl)-4,5-dihydro-oxazol-2-ylamine]",0.0014 µM
9,"Cc1cc([C@@]2(C)COC(N)=N2)c(F)cc1Cl [Example 308, (S)-4-(4-Chloro-2-fluoro-5-methyl-phenyl)-4-methyl-4,5-dihydro-oxazol-2-ylamine]",0.0009 µM
10,"NC1=N[C@@H](c2cc(F)ccc2C(F)(F)F)CO1 [Example 259, (+)-(S)-4-(5-Fluoro-2-trifluoromethyl-phenyl)-4,5-dihydro-oxazol-2-ylamine]",0.0088 µM
11,"NC1=N[C@@H](c2ccc(Br)cc2F)CO1 [Example 367, (+)-(S)-4-(4-Bromo-2-fluoro-phenyl)-4,5-dihydro-oxazol-2-ylamine]",0.001 µM
12,"CCC(C[C@H]1COC(N)=N1)c1cccc(Cl)c1F (stereo partly drawn) [Example 355, (S)-4-[2-(3-Chloro-2-fluoro-phenyl)-butyl]-4,5-dihydro-oxazol-2-ylamine]",0.0043 µM
13,"NC1=N[C@@H](CCc2cc(Cl)ccc2Cl)CO1 [Example 333, (S)-4-[2-(2,5-Dichloro-phenyl)-ethyl]-4,5-dihydro-oxazol-2-ylamine]",0.0021 µM
14,"C[C@]1(CCc2cccc(Cl)c2)COC(N)=N1 [Example 246, (S)-4-[2-(3-Chloro-phenyl)-ethyl]-4-methyl-4,5-dihydro-oxazol-2-ylamine]",0.0055 µM
15,"COc1ccc([C@H]2COC(N)=N2)cc1C [Example 129, (S)-4-(4-Methoxy-3-methyl-phenyl)-4,5-dihydro-oxazol-2-ylamine]",0.0029 µM
16,"C[C@]1(CCc2ccccc2Cl)COC(N)=N1 [Example 228, (S)-4-[2-(2-Chloro-phenyl)-ethyl]-4-methyl-4,5-dihydro-oxazol-2-ylamine]",0.004 µM
17,"C[C@@H](C[C@H]1COC(N)=N1)c1ccccc1 [82 (S, S), (S)-4-((S)-2-phenyl-propyl)-4,5-dihydro-oxazol-2-ylamine]",0.008 µM
